pIC50, pKi: −log10 of the molar value.
How the values were obtained:
[1] = target: Voltage-gated inwardly rectifying potassium channel KCNH2 (Homo sapiens, UniProt Q12809); assay: Displacement of [35S]MK499 from human ERG expressed in HEK293 cells; assay type: cell-based; settings: for pIC50: read-out: IP
[2] = Displacement of [3H](E)-N1-(2-methoxybenzyl)-cinnamamidine from human recombinant N-methyl-D-aspartate receptor subunit NR1a/N-methyl D-aspartate receptor subtype 2B expressed in mouse Ltk cells by radioligand binding assay
[3] = Binding affinity to alpha1 adrenergic receptor
[4] = target: Glutamate receptor ionotropic, NMDA 2B (Homo sapiens, UniProt Q13224); assay: Antagonistic activity against NR2B receptor expressed in mouse Ltk cells assessed as inhibition of calcium influx by FLIPR assay; assay type: functional, cell-based
Sequence of Glutamate receptor ionotropic, NMDA 2B (Q13224 whole entry): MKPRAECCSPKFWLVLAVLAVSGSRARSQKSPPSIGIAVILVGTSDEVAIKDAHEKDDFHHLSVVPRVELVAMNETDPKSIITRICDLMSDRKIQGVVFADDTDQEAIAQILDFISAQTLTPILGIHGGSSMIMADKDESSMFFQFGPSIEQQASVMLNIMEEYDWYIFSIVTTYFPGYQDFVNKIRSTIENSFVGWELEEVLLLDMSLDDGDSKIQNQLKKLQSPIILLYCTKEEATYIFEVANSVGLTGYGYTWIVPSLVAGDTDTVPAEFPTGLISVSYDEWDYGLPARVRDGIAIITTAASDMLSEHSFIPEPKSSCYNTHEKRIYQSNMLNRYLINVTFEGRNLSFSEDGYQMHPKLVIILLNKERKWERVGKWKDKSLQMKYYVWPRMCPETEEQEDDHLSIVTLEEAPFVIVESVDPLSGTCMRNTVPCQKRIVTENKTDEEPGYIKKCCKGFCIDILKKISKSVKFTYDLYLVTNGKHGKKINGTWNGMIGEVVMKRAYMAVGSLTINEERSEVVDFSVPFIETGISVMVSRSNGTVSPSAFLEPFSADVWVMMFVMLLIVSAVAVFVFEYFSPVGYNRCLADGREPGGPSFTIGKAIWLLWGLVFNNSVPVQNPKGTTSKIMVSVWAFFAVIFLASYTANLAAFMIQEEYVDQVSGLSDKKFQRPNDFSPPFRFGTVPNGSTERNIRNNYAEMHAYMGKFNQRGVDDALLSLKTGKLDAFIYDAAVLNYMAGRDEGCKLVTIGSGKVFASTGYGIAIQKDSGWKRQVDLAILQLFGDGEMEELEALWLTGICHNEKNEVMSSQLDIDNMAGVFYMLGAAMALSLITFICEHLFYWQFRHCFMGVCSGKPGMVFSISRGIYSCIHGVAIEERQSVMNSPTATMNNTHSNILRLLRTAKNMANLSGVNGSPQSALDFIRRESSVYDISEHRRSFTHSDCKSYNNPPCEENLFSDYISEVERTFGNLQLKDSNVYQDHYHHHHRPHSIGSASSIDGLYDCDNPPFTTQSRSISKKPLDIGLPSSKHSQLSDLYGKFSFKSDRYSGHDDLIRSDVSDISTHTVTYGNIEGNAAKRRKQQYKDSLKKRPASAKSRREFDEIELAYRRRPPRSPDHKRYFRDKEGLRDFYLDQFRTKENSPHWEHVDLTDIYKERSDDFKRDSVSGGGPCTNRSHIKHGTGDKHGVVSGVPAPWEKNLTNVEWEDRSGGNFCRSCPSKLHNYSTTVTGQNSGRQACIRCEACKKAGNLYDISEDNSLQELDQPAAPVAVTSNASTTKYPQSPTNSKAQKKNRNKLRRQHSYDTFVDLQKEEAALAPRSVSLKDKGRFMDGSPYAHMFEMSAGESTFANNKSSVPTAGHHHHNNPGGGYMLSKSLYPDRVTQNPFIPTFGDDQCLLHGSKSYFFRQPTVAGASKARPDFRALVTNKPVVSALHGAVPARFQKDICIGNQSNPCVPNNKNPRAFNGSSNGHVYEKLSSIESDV

Homo sapiens = organism: Homo sapiens; assay: Selectivity ratio of Ki for human NR2B to IP for human ERG

Sequence of Voltage-gated inwardly rectifying potassium channel KCNH2 (Q12809 whole entry): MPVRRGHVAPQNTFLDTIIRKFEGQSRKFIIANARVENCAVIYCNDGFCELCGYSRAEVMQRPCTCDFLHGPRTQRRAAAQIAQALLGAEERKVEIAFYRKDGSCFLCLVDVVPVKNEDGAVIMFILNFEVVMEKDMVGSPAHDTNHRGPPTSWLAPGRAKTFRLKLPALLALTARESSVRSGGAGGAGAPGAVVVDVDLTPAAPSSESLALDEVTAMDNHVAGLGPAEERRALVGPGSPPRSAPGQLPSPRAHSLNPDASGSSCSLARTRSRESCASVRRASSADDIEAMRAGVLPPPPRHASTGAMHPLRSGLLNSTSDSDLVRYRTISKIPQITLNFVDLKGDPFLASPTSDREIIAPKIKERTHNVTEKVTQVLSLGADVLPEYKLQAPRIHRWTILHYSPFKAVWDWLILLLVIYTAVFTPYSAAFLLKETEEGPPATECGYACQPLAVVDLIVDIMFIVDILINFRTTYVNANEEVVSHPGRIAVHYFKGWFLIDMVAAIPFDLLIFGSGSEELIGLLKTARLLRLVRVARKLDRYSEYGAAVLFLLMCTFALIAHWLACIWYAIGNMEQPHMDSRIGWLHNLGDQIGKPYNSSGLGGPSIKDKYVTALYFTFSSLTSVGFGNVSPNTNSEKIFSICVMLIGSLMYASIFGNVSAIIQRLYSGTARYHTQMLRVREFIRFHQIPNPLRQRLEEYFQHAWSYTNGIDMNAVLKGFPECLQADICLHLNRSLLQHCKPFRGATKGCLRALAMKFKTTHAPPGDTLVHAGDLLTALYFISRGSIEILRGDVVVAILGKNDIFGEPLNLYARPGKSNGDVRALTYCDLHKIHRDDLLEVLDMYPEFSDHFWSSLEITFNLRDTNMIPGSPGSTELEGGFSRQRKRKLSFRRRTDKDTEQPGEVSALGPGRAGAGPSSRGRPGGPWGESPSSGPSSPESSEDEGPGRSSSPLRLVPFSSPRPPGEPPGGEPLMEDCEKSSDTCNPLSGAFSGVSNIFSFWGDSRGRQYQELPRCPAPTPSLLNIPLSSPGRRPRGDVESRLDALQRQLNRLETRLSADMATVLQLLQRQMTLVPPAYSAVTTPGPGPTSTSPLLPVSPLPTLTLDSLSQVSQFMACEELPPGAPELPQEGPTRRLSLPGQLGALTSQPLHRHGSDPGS

pKi [3] | pIC50 [4] | Ratio (Homo sapiens) | SMILES | pIC50 [1] | pKi [2] | pKi [1]
– | – | – | CC(=O)OC1c2cc(-c3ccccc3)cnc2C=Cc2c(C#N)cccc21 (centres undefined) | 6.19 | 8.00 | –
– | – | – | COC1c2cc(-c3ccccc3)cnc2C=Cc2c(C#N)cccc21 (centres undefined) | 6.18 | 5.32 | –
– | – | – | N#Cc1cccc2c1C=Cc1ncc(N3CCCCC3)cc1C2O (racemic) | 5.00 | 7.37 | –
– | – | – | N#Cc1cccc2c1C=Cc1ncc(-c3cccc(F)c3)cc1C2O (centres undefined) | 5.30 | 7.64 | –
5.30 | 8.05 | – | N#Cc1cccc2c1C=Cc1ncc(-c3ccccc3)cc1C2O (single isomer, unassigned; (-)) | 6.23 | 9.00 | –
– | – | – | COc1ccccc1-c1cnc2c(c1)C(O)c1cccc(C#N)c1C=C2 (centres undefined) | 5.26 | 7.89 | –
– | – | – | N#Cc1cccc2c(=O)c3cc(-c4ccccc4)cnc3ccc12 | 6.05 | 6.00 | –
– | – | – | N#Cc1cccc2c1C=Cc1ncc(-c3ccc(F)cc3)cc1C2O (centres undefined) | 6.29 | 8.52 | –
– | – | – | N#Cc1cccc2c1CCc1ncc(-c3ccccc3)cc1C2 | 6.81 | 7.11 | –
< 4.68 | 7.57 | – | N#Cc1cccc2c1C=Cc1ncc(N3CCCCC3)cc1C2O (single isomer, unassigned; (-)) [listing 1 of 2 here] | 4.70 | 7.77 | –
– | – | – | Cc1ccc(-c2cnc3c(c2)C(O)c2cccc(C#N)c2C=C3)cc1 (centres undefined) | 5.77 | 8.00 | –
– | – | 1000 | N#Cc1cccc2c1C=Cc1ncc(N3CCCCC3)cc1C2O (single isomer, unassigned; (-)) [listing 2 of 2 here] | – | – | –
– | – | – | COc1cccc(-c2cnc3c(c2)C(O)c2cccc(C#N)c2C=C3)c1 (centres undefined) | 5.81 | 8.05 | –
– | – | – | N#Cc1cccc2c1C=Cc1ncc(N3CCCCC3)cc1C2O (single isomer, unassigned; (+)) | 4.70 | 4.46 | –
– | – | – | N#Cc1cccc2c1C=Cc1ncc(-c3ccccc3)cc1C2O (single isomer, unassigned; (+)) | 5.00 | 6.27 | –
– | – | – | N#Cc1cccc2c1C=Cc1ncc(N3CCCCCC3)cc1C2O (centres undefined) | 5.52 | 6.37 | –
– | – | – | N#Cc1cccc2c1C=Cc1ncc(-c3ccccc3)cc1C2O (racemic) | 5.29 | 8.70 | –
– | – | – | Cc1ccccc1-c1cnc2c(c1)C(O)c1cccc(C#N)c1C=C2 (centres undefined) | 5.87 | 8.22 | –
– | – | – | Cc1cccc(-c2cnc3c(c2)C(O)c2cccc(C#N)c2C=C3)c1 (centres undefined) | 5.96 | 8.40 | –
– | – | – | N#Cc1cccc2c1C=Cc1ncc(-c3ccccc3F)cc1C2O (centres undefined) | 5.35 | 7.80 | –
– | – | – | N#Cc1cccc2c1C=Cc1ncc(-c3ccccc3)cc1C2 | 7.19 | 8.70 | –
– | – | – | N#Cc1cccc2c1C=Cc1ncc(N3CCOCC3)cc1C2O (centres undefined) | 4.70 | 6.71 | –
– | – | – | N#Cc1cccc2c1C=Cc1ncc(N3CCCC3)cc1C2O (centres undefined) | 4.81 | 6.14 | –
– | – | – | COc1ccc(-c2cnc3c(c2)C(O)c2cccc(C#N)c2C=C3)cc1 (centres undefined) | 5.79 | 8.10 | –
– | – | – | CC1CCN(c2cnc3c(c2)C(O)c2cccc(C#N)c2C=C3)CC1 (centres undefined) | 5.28 | 7.08 | –
– | – | – | N#Cc1cccc2c1CCc1ncc(-c3ccccc3)cc1C2O (centres undefined) | 5.45 | 7.25 | –
– | – | – | N#Cc1cccc2c1C(=O)Nc1ncc(-c3ccccc3)cc1C2 | – | 7.72 | 6.37
– | – | – | CN1CCN(c2cnc3c(c2)C(O)c2cccc(C#N)c2C=C3)CC1 (centres undefined) | 4.38 | < 4.80 | –

From ChEMBL document CHEMBL1155351, “Synthesis and evaluation of novel tricyclic benzo[4.5]cyclohepta[1.2]pyridine derivatives as NMDA/NR2B antagonists” (Bioorg Med Chem Lett, 2009)
